# Test results published in patent publication US20120208781A1, “AMINOGLYCOSIDE DOSING REGIMENS” (Achaogen, Inc., priority 2009, published 2012).
# Columns and labels:
# Enterobacteriaceae (ENT) = test: MIC, CLSI broth microdilution, worldwide isolates: Enterobacteriaceae; type: cell-based
# Source text: (§1) In the first study, a total of 235 isolates were collected from medical centers worldwide and tested for susceptibility to Compound 1 and comparator agents by CLSI broth microdilution methods. […] Non-ENT GN pathogens included WT P. aeruginosa (PSA) and Acinetobacter spp. (ACB), and carbapenem (CARB)-R strains, including those with MBL and OXA enzymes, SA and coagulase-negative staphylococci (CoNS) included oxacillin-susceptible (MSSA/MS-CoNS) and —R (MRSA/MR-CoNS) strains.
# (§2) Minimum inhibitory concentrations (MIC) were determined by reference Clinical and Laboratory Standards Institute (CLSI) broth microdilution methods per M7-A7 [2006]. Briefly, serial two-fold dilutions of Compound 1 and comparator AGs (together, “the test compounds”) were prepared at 2× concentration in appropriate diluent. The dilutions were mixed in 96-well assay plates with bacterial inoculum. Bacteria were suspended in sterile saline and added to each assay plate to obtain a final concentration of 5.5×10^5 CFU/mL. The plates were incubated at 35° C. for 20 hours in ambient air. […] After incubation, assay plates were read using a microtiter plate reader at 600 nm.
# S. aureus (SA) = test: MIC, CLSI broth microdilution, worldwide isolates: S. aureus; type: cell-based
# Source text: as §1, §2
# [1] = Enterobacteriaceae, KPC, NMC, SME (15)
smiles,measurement,setting,value
"CN[C@@H]1[C@@H](O)[C@@H](O[C@@H]2[C@@H](O)[C@H](O[C@H]3OC(CNCCO)=CC[C@H]3N)[C@@H](N)C[C@H]2NC(=O)[C@@H](O)CCN)OC[C@]1(C)O [Compound 1, 6′-(2-Hydroxy-ethyl)-1-(4-amino-2(S)-hydroxy-butyryl)-sisomicin]",MIC50,Enterobacteriaceae (ENT),≤ 0.25 µg/mL
same,MIC90,Enterobacteriaceae (ENT),2 µg/mL
same,Cumulative % inhibited at Cmpd. MIC 1,Enterobacteriaceae (ENT); Enterobacteriaceae (125),80.0%
same,Cumulative % inhibited at Cmpd. MIC 2,Enterobacteriaceae (ENT); Enterobacteriaceae (125),92.0%
same,Cumulative % inhibited at Cmpd. MIC 4,Enterobacteriaceae (ENT); Enterobacteriaceae (125),98.4%
same,Cumulative % inhibited at Cmpd. MIC 8,Enterobacteriaceae (ENT); Enterobacteriaceae (125),98.4%
same,Cumulative % inhibited at Cmpd. MIC 16,Enterobacteriaceae (ENT); Enterobacteriaceae (125),98.4%
same,Cumulative % inhibited at Cmpd. MIC 32,Enterobacteriaceae (ENT); Enterobacteriaceae (125),98.4%
same,Cumulative % inhibited at Cmpd. MIC 64,Enterobacteriaceae (ENT); Enterobacteriaceae (125),98.4%
same,Cumulative % inhibited at Cmpd. MIC >64,Enterobacteriaceae (ENT); Enterobacteriaceae (125),100.0%
same,Cumulative % inhibited at Cmpd. MIC ≦0.5,Enterobacteriaceae (ENT); Enterobacteriaceae (125),56.0%
same,Cumulative % inhibited at Cmpd. MIC 1,"Enterobacteriaceae (ENT); Enterobacteriaceae, AmpC (20)",85.0%
same,Cumulative % inhibited at Cmpd. MIC 2,"Enterobacteriaceae (ENT); Enterobacteriaceae, AmpC (20)",95.0%
same,Cumulative % inhibited at Cmpd. MIC 4,"Enterobacteriaceae (ENT); Enterobacteriaceae, AmpC (20)",95.0%
same,Cumulative % inhibited at Cmpd. MIC 8,"Enterobacteriaceae (ENT); Enterobacteriaceae, AmpC (20)",95.0%
same,Cumulative % inhibited at Cmpd. MIC 16,"Enterobacteriaceae (ENT); Enterobacteriaceae, AmpC (20)",95.0%
same,Cumulative % inhibited at Cmpd. MIC 32,"Enterobacteriaceae (ENT); Enterobacteriaceae, AmpC (20)",95.0%
same,Cumulative % inhibited at Cmpd. MIC 64,"Enterobacteriaceae (ENT); Enterobacteriaceae, AmpC (20)",95.0%
same,Cumulative % inhibited at Cmpd. MIC >64,"Enterobacteriaceae (ENT); Enterobacteriaceae, AmpC (20)",100.0%
same,Cumulative % inhibited at Cmpd. MIC ≦0.5,"Enterobacteriaceae (ENT); Enterobacteriaceae, AmpC (20)",75.0%
same,Cumulative % inhibited at Cmpd. MIC 1,"Enterobacteriaceae (ENT); Enterobacteriaceae, ESBL (20)",90.0%
same,Cumulative % inhibited at Cmpd. MIC 2,"Enterobacteriaceae (ENT); Enterobacteriaceae, ESBL (20)",95.0%
same,Cumulative % inhibited at Cmpd. MIC 4,"Enterobacteriaceae (ENT); Enterobacteriaceae, ESBL (20)",95.0%
same,Cumulative % inhibited at Cmpd. MIC 8,"Enterobacteriaceae (ENT); Enterobacteriaceae, ESBL (20)",95.0%
same,Cumulative % inhibited at Cmpd. MIC 16,"Enterobacteriaceae (ENT); Enterobacteriaceae, ESBL (20)",95.0%
same,Cumulative % inhibited at Cmpd. MIC 32,"Enterobacteriaceae (ENT); Enterobacteriaceae, ESBL (20)",95.0%
same,Cumulative % inhibited at Cmpd. MIC 64,"Enterobacteriaceae (ENT); Enterobacteriaceae, ESBL (20)",95.0%
same,Cumulative % inhibited at Cmpd. MIC >64,"Enterobacteriaceae (ENT); Enterobacteriaceae, ESBL (20)",100.0%
same,Cumulative % inhibited at Cmpd. MIC ≦0.5,"Enterobacteriaceae (ENT); Enterobacteriaceae, ESBL (20)",65.0%
same,Cumulative % inhibited at Cmpd. MIC 1,Enterobacteriaceae (ENT); [1],100.0%
same,Cumulative % inhibited at Cmpd. MIC ≦0.5,Enterobacteriaceae (ENT); [1],60.0%
same,Cumulative % inhibited at Cmpd. MIC 1,"Enterobacteriaceae (ENT); Enterobacteriaceae, MBL (10)",80.0%
same,Cumulative % inhibited at Cmpd. MIC 2,"Enterobacteriaceae (ENT); Enterobacteriaceae, MBL (10)",90.0%
same,Cumulative % inhibited at Cmpd. MIC 4,"Enterobacteriaceae (ENT); Enterobacteriaceae, MBL (10)",100.0%
same,Cumulative % inhibited at Cmpd. MIC ≦0.5,"Enterobacteriaceae (ENT); Enterobacteriaceae, MBL (10)",80.0%
same,Cumulative % inhibited at Cmpd. MIC 1,"Enterobacteriaceae (ENT); Enterobacteriaceae, WT (60)",70.0%
same,Cumulative % inhibited at Cmpd. MIC 2,"Enterobacteriaceae (ENT); Enterobacteriaceae, WT (60)",88.3%
same,Cumulative % inhibited at Cmpd. MIC 4,"Enterobacteriaceae (ENT); Enterobacteriaceae, WT (60)",100.0%
same,Cumulative % inhibited at Cmpd. MIC ≦0.5,"Enterobacteriaceae (ENT); Enterobacteriaceae, WT (60)",41.7%
same,Cumulative % inhibited at Cmpd. MIC 1,S. aureus (SA); SA (30),96.7%
same,Cumulative % inhibited at Cmpd. MIC 2,S. aureus (SA); SA (30),100.0%
same,Cumulative % inhibited at Cmpd. MIC ≦0.5,S. aureus (SA); SA (30),66.7%
same,Cumulative % inhibited at Cmpd. MIC 1,"S. aureus (SA); SA, MRSA (20)",100.0%
same,Cumulative % inhibited at Cmpd. MIC ≦0.5,"S. aureus (SA); SA, MRSA (20)",60.0%
same,Cumulative % inhibited at Cmpd. MIC 1,"S. aureus (SA); SA, MSSA (10)",90.0%
same,Cumulative % inhibited at Cmpd. MIC 2,"S. aureus (SA); SA, MSSA (10)",100.0%
same,Cumulative % inhibited at Cmpd. MIC ≦0.5,"S. aureus (SA); SA, MSSA (10)",80.0%
